Reference: article PMC3367765 (Pflugers Archiv, 2012)
Read-outs that look alike come from different tables or passages of the source.

Columns and labels:
Kvβ3 = biological target: T1, Kvβ3 (Mus musculus, UniProt F6YMI4); assay: fluorescence titration; format: binding
T1 sequence (F6YMI4 1-404): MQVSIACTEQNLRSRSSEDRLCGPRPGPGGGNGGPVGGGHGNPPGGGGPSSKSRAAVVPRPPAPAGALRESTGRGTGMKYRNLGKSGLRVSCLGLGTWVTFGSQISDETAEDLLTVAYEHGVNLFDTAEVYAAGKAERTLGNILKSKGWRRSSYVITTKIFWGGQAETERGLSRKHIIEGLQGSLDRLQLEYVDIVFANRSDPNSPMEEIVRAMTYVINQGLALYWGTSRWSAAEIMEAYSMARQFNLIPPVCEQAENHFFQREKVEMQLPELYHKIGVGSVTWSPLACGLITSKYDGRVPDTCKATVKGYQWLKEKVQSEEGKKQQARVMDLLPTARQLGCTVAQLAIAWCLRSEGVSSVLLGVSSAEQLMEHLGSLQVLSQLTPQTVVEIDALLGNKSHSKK

[1] = biological target: T2, Kvβ2 (AKR part, amino acid residues 39-367) (UniProt P62483 39-367); assay: pull-down
T2 sequence (looked up): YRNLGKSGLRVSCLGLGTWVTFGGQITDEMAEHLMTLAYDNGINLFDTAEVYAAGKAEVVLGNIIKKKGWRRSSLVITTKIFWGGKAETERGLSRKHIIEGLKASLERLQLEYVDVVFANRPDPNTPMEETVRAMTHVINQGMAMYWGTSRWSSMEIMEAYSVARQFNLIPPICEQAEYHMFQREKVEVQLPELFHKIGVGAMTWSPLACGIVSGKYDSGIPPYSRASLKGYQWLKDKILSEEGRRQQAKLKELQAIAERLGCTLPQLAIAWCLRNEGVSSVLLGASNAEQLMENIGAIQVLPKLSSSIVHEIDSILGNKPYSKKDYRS

[2] = biological target: T2, Kvβ2 (AKR part, amino acid residues …); assay: pull-down; remark: listed apart in the source

| Kd (Kvβ3) [µM] | Kd [1] [µM] | Kd [2] [µM] | Molecule |
| --- | --- | --- | --- |
| 5.6 ± 0.26 |  |  | NC(=O)C1=CN([C@@H]2O[C@H](COP(=O)(O)OP(=O)(O)OC[C@H]3O[C@@H](n4cnc5c(N)ncnc54)[C@H](OP(=O)(O)O)[C@@H]3O)[C@@H](O)[C@H]2O)C=CC1 [NADPH] |
| 38 ± 9 |  |  | NC(=O)c1ccc[n+]([C@@H]2O[C@H](COP(=O)(O)OP(=O)(O)OC[C@H]3O[C@@H](n4cnc5c(N)ncnc54)[C@H](OP(=O)(O)O)[C@@H]3O)[C@@H](O)[C@H]2O)c1 [NADP^+] |
|  | 5.2 ± 0.8 | 9.9 ± 1.7 | GST-C60 protein expressed from pDEST-26 vector (domain or fragment, rat, UniProt P19024 543-602, looked up) RKVSCSKASFCKTGGSLESSDSIRRGSCPLEKCHLKAKSNVDLRRSLYALCLDTSRETDL |
